Assay results taken from patent US20260248863A1, “METHODS AND MATERIALS FOR TREATING GASTROINTESTINAL DISORDERS” (Mayo Foundation for Medical Education and Research, priority 2020, published 2026).

What was measured:
Caco-2 monolayers [1] = test: Texas red dextran flux across Caco-2 monolayers; assay type: cell-based
Description: (§1) Apical addition of high PA fecal supernatants on Caco-2 monolayers caused a drop in transepithelial resistance (TER) which was not seen with low PA supernatant (FIG. 16A). […] Since pancreatic elastases were found as the most abundant proteases driving the fecal PA, their effects on barrier were tested.

Caco-2 monolayers [2] = test: Transepithelial resistance (TER) drop induced by high PA fecal supernatants on Caco-2 monolayers; assay type: cell-based
Description: as §1

`CC(C)C[C@H](NC(=O)[C@H]1O[C@@H]1C(=O)O)C(=O)NCCCCN=C(N)N` [E64] was tested, and the “reduction of increased paracellular (Texas red dextran) flux caused by high PA supernatants” value (Caco-2 monolayers [1]; apical preincubation, 0.1 mM E64, Caco-2 monolayers, FIG. 17B) was “not” and the “inhibition of fecal supernatant induced TER drop” value (Caco-2 monolayers [2]; apical preincubation, 0.1 mM E64, Caco-2 monolayers, FIG. 17A) was “not”.

Trypsin was tested, and the effect on barrier (Caco-2 monolayers [1]) was “had an effect on barrier”.

For “porcine pancreatic elastase: porcine pancreatic elastase, protease tested for effects on barrier”, the “Texas red dextran flux, 24 hour basolateral concentration” value (Caco-2 monolayers [1]; 1 mM, Caco-2 monolayers, control 0.1 μg/mL, n=4/group, p<0.05) was 5.9 µg/mL.

In the case of `CC(C)CC(=O)N1CCN(C(=O)CCCCCN)CC1` [ENMD1068], the “effect of high PA fecal supernatant on TER (in words)” value (Caco-2 monolayers [2]; FIG. 18, n=5/group, p<0.05) is reported as “blocks” and the “inhibition of TER drop induced by high PA fecal supernatants” value (Caco-2 monolayers [2]; preincubation of Caco-2 monolayer, 150 μM) is reported as 45%.
